{"source": "patent US11413329B2", "about": "“Cancer cell trap” (BOARD OF REGENTS, THE UNIVERSITY OF TEXAS SYSTEM, priority 2012, dated 2022)", "key": {"[1]": {"assay": "In vivo release rate of chemotherapy drugs from hydrogel nanoparticle traps", "conditions": "from EPO-loaded hydrogel nanoparticles", "procedure": "(§1) The fabrication of temperature sensitive hydrogel nanoparticles is described in the recent publication (Cai T, Hu P, Sun M, Zhou J, Tsai Y-T, Baker D W, Tang L. Novel thermogelling dispersions of polymer nanoparticles for controlled protein release. Nanomedicine 8 (8): 1301-8, 2012). The nanoparticles were loaded with EPO (600 international units/1 ml) in the presence or absence of doxorubicine (300 μg/m1) and paclitaxel (30 mg/ml). For that, EPO (600 international units), doxorubicine (300 μg) or paclitaxel (30 mg) was mixed with 50 μg of hydrogel nanoparticles at room temperature. After implantation, the average in vivo release rates for doxorubicin and paclitaxel were measured at 10 μg/day and 1 mg/day, respectively."}, "melanoma cells": {"tested_on": "melanoma cells", "assay": "Cancer cell killing at implant sites of EPO+paclitaxel-loaded particles", "assay_type": "in vivo, C57 mice", "conditions": "EPO+paclitaxel-loaded vs EPO-loaded particles, 1, 2, 4, and 7 days", "procedure": "as §1\n(§2) Further studies were carried out to determine whether the implantation of chemotherapy drug-loaded cancer cell traps can kill cancer cells at the implant sites. […] To quantify cell recruitment, tissue section images were taken using a Leica fluorescence microscope (Leica Microsystems Wetzlar GmbH, Wetzlar, Germany) equipped with a QImaging Retiga-EXi CCD camera (QImaging, Surrey, BC, Canada). The tissue section images at a magnification of 400× (viewing area 0.24 mm^2) were then used to quantify the cell numbers per view field by cell counter plugin of ImageJ processing program."}, "PC3 cells": {"tested_on": "PC3 cells", "assay": "Cancer cell killing at implant sites of EPO+doxorubicin-loaded particles", "assay_type": "in vivo", "conditions": "EPO+doxorubicin-loaded vs EPO-loaded particles, 1, 2, 4, and 7 days", "procedure": "as §1, §2"}}}
{"molecule": "CC(=O)O[C@H]1C(=O)[C@@]2(C)[C@H]([C@H](OC(=O)c3ccccc3)[C@]3(O)C[C@H](OC(=O)[C@H](O)[C@@H](NC(=O)c4ccccc4)c4ccccc4)C(C)=C1C3(C)C)[C@]1(OC(C)=O)CO[C@@H]1C[C@@H]2O", "note": "[paclitaxel]", "values": [{"measurement": "average in vivo release rate", "setting": "[1]; 30 mg/ml", "result": 1, "unit": "mg/day"}, {"measurement": "numbers of recruited melanoma cells at implant", "setting": "melanoma cells", "result": "substantially reduced"}]}
{"molecule": "COc1cccc2c1C(=O)c1c(O)c3c(c(O)c1C2=O)C[C@@](O)(C(=O)CO)C[C@@H]3O[C@H]1C[C@H](N)[C@H](O)[C@H](C)O1", "note": "[doxorubicin]", "values": [{"measurement": "numbers of recruited PC3 cells at implant", "setting": "PC3 cells", "result": "substantially reduced"}, {"measurement": "average in vivo release rate", "setting": "[1]; 300 μg/ml", "result": 0.01, "unit": "mg/day"}]}
